According to patent publication US9753023B2, “Nanofiber grid and related methods” (Carnegie Mellon University, priority 2015, dated 2017):
Entries after “also recorded” stand apart in the source; their conditions may differ.

Columns and labels:
Format in all cases: cell-based
C2C12 mouse myoblasts [1] = experiment: Stress relaxation test (step strain) fitted to the standard linear solid (SLS) model
Procedure: (§1) Polymeric solutions of polystyrene (Scientific Polymer Products Inc., Ontario, N.Y., Mw: 2×10^6 g·mol^−1) dissolved in xylene (Fisher Scientific, Pittsburgh, Pa.) at 14% and 5% (w/w) were prepared. Plastic coverslips (Fisher Scientific, Pittsburgh, Pa.) were cut to hollow frames and used as substrates. Suspended and aligned polystyrene (PS) nanofibers of varying diameters, spacing and orientation were deposited onto a rotating plastic hollow frame in criss-crossed patterns using the STEP platform at room temperature and 15% relative humidity. […]
As cells experience forces, interactions between cytosol and cytoskeletal structures within their semi-permeable membrane elicit strain-rate dependent responses, but identifying physiological mechanisms for this behavior has proven difficult [Janmey, P. A., et al., J. Biol. Chem. 1994; 269:32503-13; Darling, E. M., et al., Biophys. […] Since viscoelasticity can alter the measured force at different strain rates, it is nonetheless an important parameter to qualitatively describe even without complete knowledge of the contribution of individual cellular components [Ketene, A. N., et al., Integr. […] Viscoelastic response is quantified through the classic stress relaxation test [Nagayama, K., et al., Med. Eng. […]

C2C12 mouse myoblasts [2] = experiment: Nanonet probe system: single-cell force evolution under cyclic sub-failure stretch with drug; details: 30-minute period; for reduction in force: cycled at 1× (one stretch per two minutes), strain rate 2 μm/s
Excerpt: The use of a suspended nanonet platform for measuring C2C12 mouse myoblast forces attached to fibers of three diameters (250, 400, and 800 nm) representing a wide range of structural stiffness (3-50 nN/μm) in connection with the NFM is developed to allow investigations in cell adhesion forces in response to symmetric and asymmetric external perturbation in single and cyclic modes at high magnifications in real time. The combined findings are two-fold: (i) contractility-based inside-out forces are evenly distributed at the edges of the cell, and that overall force magnitudes are dependent on fiber structural stiffness, and (ii) external perturbation in symmetric and asymmetric modes biases cell-fiber failure location, without affecting the outside-in forces of cell-fiber adhesion (FIG. 5). Further measured are forces of (i) cell-cell junctions, (ii) cyclic perturbation of single cells in presence of drugs, and (iii) cancerous single-cells transitioning from a blebbing to pseudopodial morphology.
as §1, with “humidity. Using a custom solvent evaporation-based fusing method, the nodes of the criss-crossed patterned nanofibers were fused to form STEP nanonets with clamped boundary conditions.” for “humidity.”
To further evaluate the nanonet probe system for efficacy as a drug testing platform at high magnifications and temporal resolutions, we subjected cells to varying concentrations of the rho kinase (ROCK)-inhibitor Y27632 and monitored its force evolution over the same 30-minute period. […]

DBTRG-05MG glioma cells [3] = experiment: Outside-in force response to a probe deflecting the leading fiber on nanonets
Procedure: (§2) According to one aspect of the methods described herein, using a highly aggressive glioma model (DBTRG-05MG), the platform technology using nanonets fused in crossed patterns manufactured using the non-electrospinning STEP technique serves to quantify single cell force modulation (both inside-out and outside-in) with and without the presence of a cytoskeleton altering drug (cytochalasin D) using suspended and aligned fiber networks (nanonets) beginning to represent the aligned glioma environment. This platform technology allows to measure contractile single cell forces exerted by glioma cells attached to and migrating along the fiber axis (inside-out). Further, the force response of glioma cells attached to two parallel fibers using a probe deflecting the leading fiber (outside-in) is measured. The forces are calculated using beam deflection within the elastic limit. […] The platform technology also allows for measuring changes in cell morphology, such as shape, area, etc. This technology allows the physiologically relevant aligned fiber networks used as ultra-sensitive force (˜nanoNewtons) probes for investigating drug response and efficacy in disease models at the single cell resolution.

DBTRG-05MG glioma cells [4] = experiment: Inside-out contractile single cell force and spreading area on nanonets
Procedure: as §2

Cc1ccc2c(c1)C(=O)C1(O)CCN(c3ccccc3)C1=N2 (centres unmarked) [blebbistatin]
relative contributions of SLS parameters k1, k2 and η (normalized) (C2C12 mouse myoblasts [1]; 50 μM blebbistatin, myosin-II disrupted): shifting in the relative contributions from k2 to η; also recorded: shift in major contribution from k2 to η

C[C@@H](N)[C@H]1CC[C@H](C(=O)Nc2ccncc2)CC1 [Y27632]
reduction in force (C2C12 mouse myoblasts [2]; 10 μM): 38% | reduction in force (C2C12 mouse myoblasts [2]; 100 μM): 57% | reaching a steady-state force value (C2C12 mouse myoblasts [2]; ROCK-inhibited cells versus cyclically-perturbed cells): did not

C=C1[C@@H](C)[C@H]2[C@H](Cc3ccccc3)NC(=O)[C@]23[C@H](OC(C)=O)/C=C/[C@@](C)(O)C(=O)[C@@H](C)C/C=C/[C@H]3[C@@H]1O [cytochalasin D]
'outside-in' force response to external strain (DBTRG-05MG glioma cells [3]): decreasing | 'inside-out' contractile forces (DBTRG-05MG glioma cells [4]): decreasing | spreading area of single glioma cells (DBTRG-05MG glioma cells [4]): compromises the spreading area

COC(=O)Nc1nc2ccc(C(=O)c3cccs3)cc2[nH]1 [nocodazole]
relative contributions of SLS parameters k1, k2 and η (normalized) (C2C12 mouse myoblasts [1]; 10 μM nocodazole, microtubules depolymerized): shifting in the relative contributions from k2 to η; also recorded: shift in major contribution from k2 to η
